Data reported in paper PMC12067350, “Discovery of Thieno[3,2‑b]pyridine-5-carboxamide and 2,3-Difluorobenzamide Negative Allosteric Modulators of Metabotropic Glutamate Receptor Subtype 5” (ACS Medicinal Chemistry Letters, 2025).
Entries after “also recorded” stand apart in the source; their conditions may differ. Read-outs that look alike come from different tables or passages of the source.

What was measured:
human mGlu5 = biological target: T1, human mGlu5 (Homo sapiens, UniProt P41594); assay: Calcium mobilization assay in human mGlu5-HEK293A cells (NAM, EC80 glutamate); assay type: cell-based; conditions: for %Glumin: efficacy of the NAM to reduce an EC80 response of glutamate
T1 construct: expressed in transfected cells
T1 sequence (P41594 21-1212): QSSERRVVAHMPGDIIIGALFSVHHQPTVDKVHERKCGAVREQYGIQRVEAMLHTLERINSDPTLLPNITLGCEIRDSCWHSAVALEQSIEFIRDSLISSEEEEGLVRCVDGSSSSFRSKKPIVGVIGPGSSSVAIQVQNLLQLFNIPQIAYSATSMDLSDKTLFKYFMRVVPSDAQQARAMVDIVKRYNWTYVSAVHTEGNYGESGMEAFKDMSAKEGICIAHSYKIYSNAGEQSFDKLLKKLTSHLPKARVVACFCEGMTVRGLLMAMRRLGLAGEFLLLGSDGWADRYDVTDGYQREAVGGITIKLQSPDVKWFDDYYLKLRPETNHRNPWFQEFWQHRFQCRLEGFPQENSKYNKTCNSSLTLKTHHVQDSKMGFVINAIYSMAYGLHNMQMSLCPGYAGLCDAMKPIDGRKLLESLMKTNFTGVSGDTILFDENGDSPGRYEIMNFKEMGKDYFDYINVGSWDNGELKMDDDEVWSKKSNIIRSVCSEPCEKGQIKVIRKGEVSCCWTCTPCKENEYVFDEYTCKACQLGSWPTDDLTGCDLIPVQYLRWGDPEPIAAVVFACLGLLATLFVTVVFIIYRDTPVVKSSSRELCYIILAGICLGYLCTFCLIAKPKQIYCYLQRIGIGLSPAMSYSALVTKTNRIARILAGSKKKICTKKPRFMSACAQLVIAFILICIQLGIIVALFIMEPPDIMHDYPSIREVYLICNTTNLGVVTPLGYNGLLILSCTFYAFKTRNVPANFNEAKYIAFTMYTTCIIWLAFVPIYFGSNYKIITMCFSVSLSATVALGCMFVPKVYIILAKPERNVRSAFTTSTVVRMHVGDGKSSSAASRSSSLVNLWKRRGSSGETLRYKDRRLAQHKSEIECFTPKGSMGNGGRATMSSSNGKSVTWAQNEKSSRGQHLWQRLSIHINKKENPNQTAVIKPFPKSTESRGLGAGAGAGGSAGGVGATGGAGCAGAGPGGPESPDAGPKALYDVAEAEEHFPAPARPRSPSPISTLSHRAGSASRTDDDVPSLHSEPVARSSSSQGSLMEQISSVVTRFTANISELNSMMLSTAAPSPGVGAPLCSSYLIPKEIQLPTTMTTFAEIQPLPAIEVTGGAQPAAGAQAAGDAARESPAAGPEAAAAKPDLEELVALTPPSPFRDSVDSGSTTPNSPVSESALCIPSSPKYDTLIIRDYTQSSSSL

[1] = Binding in plasma from human (equilibrium dialysis); assay type: in vitro ADME; conditions: fraction unbound
Method: Binding in plasma from rat and human.
Determination of compounds’ fraction unbound (f u) in plasma from rat and human was conducted in vitro via equilibrium dialysis using HTDialysis membrane plates. Dialysis membranes (four paired strips per HTD assay) were hydrated as described by the manufacturer and inserted into the HTD plate, which was assembled and prepared for sample addition by the dispensing of blank buffer (DPBS, 100 µL/well) into the ‘top half’ of each membrane-split well. Each compound was diluted into plasma from each species (5 µM final concentration), which was aliquoted in triplicate to the ‘bottom half’ of the prepared HTD plate wells. The HTD plate was sealed and incubated for 6 hours at 37 °C. Following incubation, each well (both top and bottom halves) were transferred (20 µL) to the corresponding wells of a 96-shallow-well (V-bottom) plate. The daughter plates were then matrix-matched (buffer side wells received equal volume of plasma, and plasma side wells received equal volume of buffer), and extraction solution (120 µL; acetonitrile containing 50 nM carbamazepine as IS) was added to all wells of both daughter plates to precipitate protein and extract test article. The plates were then sealed and centrifuged (3500 rcf) for 10 minutes at ambient temperature. Supernatant (60 µL) from each well of the daughter plates was then transferred to the corresponding wells of new daughter plates (96-shallow-well, V bottom) containing water (Milli-Q, 60 µL/well), and the plates were sealed in preparation for LC-MS/MS analysis (see below). fu was calculated as (analyte to IS MS peak area ratio from Trans-buffer side) / (analyte to IS MS peak area ratio from Cis-plasma side). Mean values for each species were calculated from 3 replicates. […]
Mean values for each species were calculated from 3 replicates.

[2] = Intrinsic clearance in rat liver microsomes; assay type: in vitro ADME; conditions: predicted hepatic clearance from in vitro rat microsomal data
Method: Intrinsic Clearance in Rat and Human Liver Microsomes
The in vitro intrinsic clearance (CL int) was investigated in commercially obtained hepatic microsomes from rat and human donors using the substrate depletion (i.e., loss-of-parent vs. time, or t 1/2 method) approach with analyte detection via liquid chromatography-tandem mass spectrometry (LC-MS/MS). For each species, mean %parent remaining values at each time point were calculated from replicates raw data (analyte:IS peak area ratios) and used to determine in vitro t 1/2 and CLint.
Experiments were carried out using a robot-assisted (TECAN model Evo 200). Compound was incubated (1 µM final concentration) in buffer (100 mM potassium phosphate pH 7.4 with 3 mM MgCl2) containing hepatic microsomes (0.5 mg/mL final concentration) from multiple species, discretely, at 37 °C under constant orbital shaking. After 5 minutes (pre-incubation), reactions were initiated by addition of nicotinamide adenine dinucleotide phosphate (NADPH, 1 mM final concentration). At selected time intervals (0, 3, 7, 15, 25, and 45 minutes) post-addition of NADPH, aliquots (50 µL) were taken and placed into a 96-shallow-well plate containing ice cold acetonitrile (150 µL) with carbamazepine (IS, 50 nM). The plates were then centrifuged (3000 rcf at 4 °C) for 10 minutes. The supernatants were transferred to a new 96-shallow-well daughter plate and diluted (1:1 v/v) with water (Milli-Q filtered). The plates were then sealed in preparation for LC-MS/MS analysis (see below).
Raw LC-MS/MS peak area data generated from the assay samples were used to construct natural log-transformed %parent remaining vs. time plots (using t = 0 minute post-NADPH addition sample data as starting point set to 100%). In vitro compound half-life (t 1/2) values were obtained using the following […]
k is the slope from linear regression analysis of the natural log-transformed data (using means from Where all replicates at each time point). Resulting t 1/2 values were then used to calculate hepatic CLint values according to the following equation and with the use of species-specific scale-up factors for liver weight (grams) per total body weight (kg):
CL = 0.693 x 1 mL incubation x 45 mg microsomes x a gram liver
int in vitro t1/2 0.5 mg microsomes 1 gram liver kg body wt aScale-up factors used are 45 (rat) and 20 (human).1
Predicted hepatic clearance (CLhep) was calculated using the following equation: […]
Qh represents hepatic blood flow (mL/min/kg): 21 for human, 70 for rat, and 90 for mouse.

[3] = set-up: method as in PMID 31589885; conditions: led to termination of trials; attributed to off-target MAO-B; cited from earlier work
[4] = literature, cited from earlier work
[5] = rat, in vivo; cited from earlier work
[6] = human mGlu5-HEK293A cells, EC80 fixed concentration of glutamate, n = 2 in triplicate
[7] = human mGlu5-HEK293A cells, EC80 fixed concentration of glutamate, n = 2 in triplicate, read-out: IC50

Row | SMILES | %Glumin (human mGlu5; human mGlu5-HEK293A cells) [%] | pIC50 (human mGlu5; [6]) | IC50 (human mGlu5; [7]) [µM] | further results
1 | O=C(Nc1ccc(F)cn1)c1cc(O[C@@H]2CCOC2)c2sccc2n1 [19aB] | 2 | 7.22 | 0.061 | human f u,plasma [1]: 0.008; rat CLhep [2]: 55.1 mL/min/kg
2 | O=C(Nc1cccc(F)n1)c1cc(O[C@@H]2CCOC2)c2sccc2n1 [19aC] | 6 | 5.98 | 1.07 | IC50 (human mGlu5; in μM, read-out: hmGlu5 IC50): 1.1 µM
3 | Cc1cccc(NC(=O)c2cc(O[C@@H]3CCOC3)c3sccc3n2)n1 [19aD] | 2 | 7.66 | 0.022 | human f u,plasma [1]: 0.005; rat CLhep [2]: 57.5 mL/min/kg
4 | Cc1cccc(NC(=O)c2cc(O[C@@H]3CCOC3)c3sccc3n2)c1 [19aE] | 2 | 6.08 | 0.845 | 
5 | Cc1nc(NC(=O)c2cc(O[C@@H]3CCOC3)c3sccc3n2)ccc1F [19aG] | 66 | < 5 | > 10 | 
6 | CCc1csc(NC(=O)c2cc(O[C@@H]3CCOC3)c3sccc3n2)n1 [19aH] | 6 | 5.62 | 2.56 | 
7 | O=C(Nc1nccs1)c1cc(O[C@@H]2CCOC2)c2sccc2n1 [19aK] | 3 | 5.75 | 1.83 | 
8 | O=C(Nc1nc(CF)cs1)c1cc(O[C@@H]2CCOC2)c2sccc2n1 [19aL] | 2 | 7.27 | 0.055 | human f u,plasma [1]: 0.016; rat CLhep [2]: 41.8 mL/min/kg
9 | O=C(Nc1nc(C(F)F)cs1)c1cc(O[C@@H]2CCOC2)c2sccc2n1 [19aM] | 18 | 6.50 | 0.32 | 
10 | N#Cc1csc(NC(=O)c2cc(O[C@@H]3CCOC3)c3sccc3n2)n1 [19aN] | 3 | 6.27 | 0.559 | 
11 | Cc1coc(NC(=O)c2cc(O[C@@H]3CCOC3)c3sccc3n2)n1 [19aP] | 50 | < 5 | > 10 | 
12 | Cc1nsc(NC(=O)c2cc(O[C@@H]3CCOC3)c3sccc3n2)n1 [19aQ] | 73 | < 5 | > 10 | 
13 | Cc1csc(NC(=O)c2cc(O[C@@H]3CCOC3)c3sc(C)cc3n2)n1 [19cA] | 2 | 6.45 | 0.357 | 
14 | Cc1cc2nc(C(=O)Nc3ccc(F)cn3)cc(O[C@@H]3CCOC3)c2s1 [19cB] |  |  |  | IC50 (nM) (human mGlu5; [6]): inactive
15 | Cc1csc(NC(=O)c2cc(O[C@@H]3CCOC3)c3ccn(C)c3n2)n1 [19dA] | 2 | 7.04 | 0.093 | human f u,plasma [1]: 0.006; rat CLhep [2]: 52.3 mL/min/kg
16 | Cn1ccc2c(O[C@@H]3CCOC3)cc(C(=O)Nc3ccc(F)cn3)nc21 [19dB] | 12 | 5.98 | 1.06 | 
17 | Cn1ccc2nc(C(=O)Nc3ccc(F)cn3)cc(O[C@@H]3CCOC3)c21 [19eB] | 46 | < 5 | > 10 | 

Row | SMILES | %Glumin (human mGlu5; human mGlu5-HEK293A cells) [%] | pIC50 (human mGlu5; [6]) | IC50 (human mGlu5; [7]) [µM] | further results
18 | Cc1csc(NC(=O)c2cc(O[C@@H]3CCOC3)c3ccccc3n2)n1 [19fA] | 6 | 6.74 | 0.192 | 
19 | O=C(Nc1ccc(F)cn1)c1cc(O[C@@H]2CCOC2)c2ccccc2n1 [19fB] | 15 | 5.59 | 2.65 | 
20 | Cc1csc(NC(=O)c2cc(OC3CC(C)(C)OC3(C)C)c3sccc3n2)n1 (stereo not drawn) [22b] |  |  |  | IC50 (nM) (human mGlu5; [6]): inactive
21 | Cc1csc(NC(=O)c2cc(OC3CCOCC3)c3sccc3n2)n1 [22d] | 25 | < 5 | > 10 | 
22 | Cc1csc(NC(=O)c2cc(OC3COC3)c3sccc3n2)n1 [22e] | 2 | 6.76 | 0.185 | 
23 | CO[C@@H](C)COc1cc(C(=O)Nc2nc(C)cs2)nc2ccsc12 [22g] | 12 | 6.17 | 0.682 | 
24 | Cc1csc(NC(=O)c2cc(OC3CC(C#N)C3)c3sccc3n2)n1 (stereo not drawn) [22i] |  |  |  | human f u,plasma [1]: 0.005; rat CLhep [2]: 48.2 mL/min/kg
25 | Cc1csc(NC(=O)c2cc(OC3CSC3)c3sccc3n2)n1 [22j] | 2 | 6.98 | 0.107 | human f u,plasma [1]: 0.001; rat CLhep [2]: 68.4 mL/min/kg
26 | Cc1csc(NC(=O)c2cc(O[C@@H]3CCOC3)cnn2)n1 [27aA] |  |  |  | IC50 (nM) (human mGlu5; [6]): inactive
27 | O=C(Nc1ccc(F)cn1)c1cncc(O[C@@H]2CCOC2)c1 [27bB] |  |  |  | IC50 (nM) (human mGlu5; [6]): inactive
28 | O=C(Nc1ccc(F)cn1)c1cc(O[C@@H]2CCOC2)cc(F)c1F [27cB] | 3 | 5.88 | 1.57 | IC50 (human mGlu5; in μM, read-out: hmGlu5 IC50): 1.6 µM
29 | O=C(Nc1ccc(F)cn1)c1cc(O[C@@H]2CCOC2)ncn1 [27eB] |  |  |  | IC50 (nM) (human mGlu5; [6]): inactive
30 | Cc1csc(NC(=O)c2cc(O[C@@H]3CCOC3)c3ccncc3n2)n1 [27gA] | 2 | 5.69 | 2.05 | IC50 (human mGlu5; in μM, read-out: hmGlu5 IC50): 2.1 µM
31 | O=C(Nc1ccc(F)cn1)c1cc(O[C@@H]2CCOC2)c2ccncc2n1 [27gB] | 3 | 5.76 | 1.78 | 
32 | N#Cc1cc(F)cc(-c2nc(-c3ccc(F)cn3)no2)c1 [AZD9272] |  |  |  | adverse effect in clinical trials [3]: psychosis-like symptoms
33 | O=C(c1ccc(OC(F)F)c(C#Cc2ccccn2)c1)N1Cc2cccnc2C1 [GRN-529] |  |  |  | glutathione conjugation to the alkyne [4]: extensive glutathione conjugation; toxicology finding ([4]; nonhuman primates, 8-week regulatory toxicology study): biliary epithelial hyperplasia; also recorded: hepatotoxicity observed
34 | Cc1csc(NC(=O)c2cc(F)cc(Oc3cncnc3)c2)n1 [VU0409106] |  |  |  | %F [5]: < 5%
